Experimental data taken from US10744114B2, “Use of eupatilin as pharmaceutical composition for prevention and treatment of fibrosis using EMT inhibitory activity” (OSTEONEUROGEN INC., priority 2016, dated 2020).

Legend:
[1] = test system: bleomycin-induced pulmonary fibrosis; assay: Fibrosis of lung tissue induced by bleomycin (Masson's trichrome); assay type: in vivo, C57BL/6J mice; conditions: 12 days after bleomycin 40 μg/head
Source text: Five-week-old male C57BL/6J mice (weight: 18.2 to 20.5 g) (KOATECH, Korea) were used as experimental animals, and each test group was composed of five experimental animals, as is summarized in Table 1 below.
Pulmonary fibrosis was induced by directly injecting a bleomycin solution into the lungs via the trachea according to the intratracheal instillation (IT) method of Kremer, Laxer and Berkman et al. Specifically, C57BL/6J mice were anesthetized through inhalation with 70% N2O and 30% O2 gas and 1.5% isoflurane, and the skin of the anterior neck thereof was excised and the organs under the muscle thereof were exposed and then carefully excised using ophthalmic surgical scissors. 50 μL of a bleomycin solution in distilled water was directly injected into the lungs all at once via the excised organ using a 1 mL syringe fitted with a 19-gauge injection needle having a blunt tip. […]
Eupatilin was used by being dissolved in a DPBS buffer (containing 1% DMSO), and the amount of eupatilin that was administered was 1 mL/kg, and the dose for each individual was calculated based on the recent body weight thereof 12 days after the administration of bleomycin, eupatilin was forcibly nasally administered once a day (5 times a week) for 1 week using a micropipette. […]

ONGHEPA1 cells = assay: TGF-β-induced fibrosis of ONGHEPA1 cells (microscope); assay type: cell-based, mouse; conditions: for inhibition of the progress of fibrosis (differentiation into myofibroblasts): TGF-β 5 ng/mL plus 50 μM compound, 24 hr
Source text: The liver tissue was separated from C57BL/6 mice and a single-cell suspension thereof was made, and immortalized cells were obtained through continuous culture and were confirmed to be mesenchymal stem cells (MSC) of HSC via RT-PCR (Reverse Transcription Polymerase Chain Reaction) using MC (Immunohistochemistry) and FACS (Fluorescence-Activated Cell Sorting). This cell line was called “ONGHEPA1”, and was deposited with the Korean Collection for Type Cultures (KCTC) of the Korea Research Institute of Bioscience and Biotechnology and assigned accession number KCTC13086BP.
Using such properties of HSC, the fibrotic characteristics of ONGHEPA1 were measured. To induce fibrosis, TGF-β (transforming growth factor beta) was added, and the morphologies of the cells were observed after 6 hr, 12 hr, 24 hr, and 48 hr. Consequently, fibrosis was confirmed to progress considerably after 24 hr and further progress after 48 hr (A of FIG. 6).
While ONGHEPA1 cells were incubated, they were treated with TGF-β to induce fibrosis, and 50 μM of eupatilin was added to the culture medium.
In order to more clearly evaluate the effect of eupatilin as above, changes were measured when ONGHEPA1 cells were first treated with eupatilin, washed to remove eupatilin and then treated with TGF-β to induce fibrosis. […] This means that eupatilin is directly associated with the course of fibrosis to thus inhibit the progress of fibrosis.
On the contrary, changes were measured when ONGHEPA1 cells were first treated with TGF-β to induce fibrosis, washed to remove TGF-β and then treated with eupatilin. […] Even when fibrosis was already progressed, eupatilin was able to restore the cells to their original normal condition.
In order to more clearly evaluate whether eupatilin was able to restore the cells that already undergone fibrosis to normal cells, changes were measured when ONGHEPA1 cells were treated with TGF-β for 24 hr to induce complete fibrosis and then treated with eupatilin. […] This means that fibrosis that has progressed considerably can be effectively treated using eupatilin.
The effects of various chromone derivatives other than eupatilin on fibrosis were measured in the same manner as in Example 3-3. While ONGHEPA1 cells were incubated, fibrosis was induced by TGF-β, and a chromone derivative was added at a concentration of 50 μM to the culture medium.

[2] = test system: Col1 (type 1 Collagen), Vim (Vimentin) and Twist; assay: Real-time RT-PCR of EMT regulators in ONGHEPA1 cells; assay type: cell-based, mouse; conditions: TGF-β + eupatilin 50 μM, 24 hr
Procedure: Also in order to evaluate whether the effect of eupatilin described above is due to the influence of eupatilin on EMT, for the cells incubated for 24 hr in each test group, the extent of expression of […], for example, Col1 (type 1 Collagen), Vim (Vimentin) and Twist, was measured through real-time RT-PCR.

For COc1ccc(-c2cc(=O)c3c(O)c(OC)c(O)cc3o2)cc1OC [eupatilin, 2-(3,4-dimethoxyphenyl)-5,7-dihydroxy-6-methoxy-chromone], the “inhibition of pulmonary fibrosis” value ([1]; 20 μg eupatilin nasally once a day for 1 week) was “inhibited”, the “inhibition of pulmonary fibrosis” value ([1]; 40 μg eupatilin nasally once a day for 1 week) was “more effectively inhibited” and the “inhibition of the progress of fibrosis (differentiation into myofibroblasts)” value (ONGHEPA1 cells) was “fibrosis were not observed”. For the same compound, the “inhibition of the progress of fibrosis (differentiation into myofibroblasts)” value (ONGHEPA1 cells; listed as Chemical Formula 2) was “superior fibrosis-inhibiting effects”, the “restoration of cells after TGF-β pretreatment” value (ONGHEPA1 cells; TGF-β 1 to 12 hr, washed, then eupatilin 50 μM 24 hr) was “normal cells such as a control group were maintained” and the “restoration of completely fibrotic cells” value (ONGHEPA1 cells; TGF-β 24 hr, washed, then eupatilin 50 μM and TGF-β 24 hr) was “restore the cells in which fibrosis has been completely induced by TGF-β to their normal condition”. For the same compound, the “inhibition of the progress of fibrosis after pretreatment” value (ONGHEPA1 cells; eupatilin 2 to 6 hr, washed, then TGF-β 24 hr) was “the progress of fibrosis was not inhibited”, the “influence on normal HSC” value (ONGHEPA1 cells; eupatilin pretreatment, washed, then TGF-β) was “no influence on normal HSC” and the “expression of Col1 (type 1 Collagen)” value [2] was “inhibited”. The “expression of Twist” value [2] was “inhibited” and the “expression of Vim (Vimentin)” value [2] was “inhibited”.
